Reference: US20190046490A1, “METHODS OF TREATING LACTOSE INTOLERANCE” (Nogra Pharma Limited, priority 2016, published 2019)
Entries after “also recorded” stand apart in the source; their conditions may differ.

Legend:
[1] = tested on: DR2 response element of the human LCT gene promoter; assay: Luciferase reporter gene assay with LCT promoter DR2 fragment in Caco-2 cells; format: cell-based
Procedure: A 321 bp genomic fragment (corresponding to the first 321 bp upstream to the transcription start site of the human lactase gene) was cloned in the pGL4-Luc reporter vector using XhoI and Hind III restriction sites introduced in “Hs-Prom-0.3 Kb sens” and “Hs-Prom-0.3 Kb anti-sens” oligonucleotides respectively. This construct and the empty vector control were transiently transfected in Caco-2 cells using Nucleofector™ Technology. Six hours post-transfection, cells were treated with PPARγ modulator for 12 hours. Luciferase activity was measured using the luciferase assay kit (Promega) in a Wallac Victor2 ™ 1420 multilabel counter (Perkin Elmer).

[2] = biological target: T1, PPARγ bound to DR2 PPRE of the LCT gene promoter (Homo sapiens, UniProt P37231); assay: Chromatin immunoprecipitation of PPARγ on the LCT gene promoter in Caco-2 cells; format: cell-based; conditions: 1 mM, 24 hours
T1 construct: Chromatin immunoprecipitation (ChIP) experiments in Caco-2 cells (5×10^6 cells) stimulated for 24 hours with 1 mM GED; endogenous in cells; host or cells: Caco-2 (colonic adenocarcinoma) cells
T1 sequence (P37231 1-505): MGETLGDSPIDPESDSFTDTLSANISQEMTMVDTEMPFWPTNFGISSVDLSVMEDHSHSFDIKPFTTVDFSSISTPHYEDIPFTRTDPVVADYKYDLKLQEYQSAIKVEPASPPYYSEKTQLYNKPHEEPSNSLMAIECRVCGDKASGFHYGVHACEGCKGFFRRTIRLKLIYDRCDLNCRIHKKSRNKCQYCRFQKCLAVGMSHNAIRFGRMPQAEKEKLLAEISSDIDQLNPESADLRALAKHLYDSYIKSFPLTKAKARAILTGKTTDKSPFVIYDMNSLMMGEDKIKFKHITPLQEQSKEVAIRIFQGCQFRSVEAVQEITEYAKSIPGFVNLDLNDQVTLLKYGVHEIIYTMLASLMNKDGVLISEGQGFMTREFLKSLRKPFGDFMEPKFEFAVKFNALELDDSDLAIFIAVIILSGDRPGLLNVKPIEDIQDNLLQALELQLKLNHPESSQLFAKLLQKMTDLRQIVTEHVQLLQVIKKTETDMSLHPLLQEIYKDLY
T1 sequence (P19793 1-462 partner): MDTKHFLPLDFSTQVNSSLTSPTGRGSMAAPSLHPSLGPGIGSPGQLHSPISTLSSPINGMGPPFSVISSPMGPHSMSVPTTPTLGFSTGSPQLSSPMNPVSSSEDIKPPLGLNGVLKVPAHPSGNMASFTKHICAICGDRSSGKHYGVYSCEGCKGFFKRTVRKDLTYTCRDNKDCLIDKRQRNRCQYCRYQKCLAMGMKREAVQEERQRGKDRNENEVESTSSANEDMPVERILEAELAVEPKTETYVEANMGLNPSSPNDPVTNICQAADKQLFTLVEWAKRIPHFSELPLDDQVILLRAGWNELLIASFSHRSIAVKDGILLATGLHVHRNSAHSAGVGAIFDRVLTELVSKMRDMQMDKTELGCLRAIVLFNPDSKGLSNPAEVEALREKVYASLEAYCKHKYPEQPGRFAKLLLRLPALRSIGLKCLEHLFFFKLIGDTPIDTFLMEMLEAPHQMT
Procedure: The physical binding of PPARγ onto the LCT gene promoter was studied by Chromatin immunoprecipitation (ChIP) experiments in Caco-2 cells (5×10^6 cells) stimulated for 24 hours with 1 mM GED in 100 mm cell culture petri dishes. Caco-2 cells were synchronized by the addition of serum-free medium for 16 hours and then stimulated for 24 hours using the protocol described previously. Cells were then rinsed with PBS and the protein-DNA complexes were fixed by adding 1% PFA for 30 minutes at room temperature. This binding was stopped by the addition of glycine (0.125M). Cells were collected by scraping in the presence of cold PBS and protease inhibitors (Sigma). The cell pellet obtained by centrifugation was taken up in 300 μl SDS buffer (1% SDS, 10 mM EDTA, 50 mM Tris-HCl pH 8, protease inhibitors) and sonicated (Diagenode, BioruptorUCD200TM-EX) for 30 seconds, followed by 30 seconds resting time. For each immunoprecipitation, 125 μL of crosslinked sonicated sample was diluted with 225 μl of IP buffer (1% triton X-100, 150 mM NaCl, 2 mM EDTA, 20 mM Tris-HCl pH 8.1 and protease inhibitors) and pre-cleared for four hours by adding 40 μL of protein A/G beads (50% slurry protein A/G Sepharose, Clinisciences) and 5 μg of salmon sperm DNA (Invitrogen). […] DNA was then purified using the PCR Clean-up kit (Macherey-Nagel) and analyzed by PCR.

LCT activity = assay: Lactase activity in Caco-2 cells (glucose oxidase method); format: cell-based, human; conditions: Caco-2 cells, 30 mM
Procedure: Lactase activity was evaluated by using a glucose oxidase method (Glucose Assay Kit, Sigma). This lactase assay is based on the measurement of the amount of glucose produced following the action of lactase by incubating samples with a lactose buffer solution (0.056 mol/l lactose in a 0.1 mol/l Na-maleate buffer). For Caco-2 cells, lactase activity was determined directly from the cell monolayer. After extensive washing, the cell monolayer was incubated with lactose buffer for one hour at 37° C. The supernatant was recovered, 50 μl were diluted with 100 μl of glucose oxidase reagent and incubated at 37° C. for 1 hour. The reaction was stopped with 100 μl of H2SO4 and read by spectrophotometry at 450 nm. When lactase activity was determined from intestinal sample, tissue samples were first dounce-homogenized in 0.9% NaCl on crushed ice. These homogenates were then diluted in 0.9% NaCl ( 1/500) and 50 μl of dilution were incubated with lactose buffer and used to determine lactase activity. For each experiment, the background attributed to the remaining glucose in the samples was measured by incubating cells or cell extracts in lactose-free buffer.

COC(Cc1ccc(N)cc1)C(=O)O (stereo not shown) [GED, 3-(4′-aminophenyl)2-methoxypropionic acid]
luciferase activity compared to untreated cells ([1]; Caco-2 cells transfected with pGL4Luc Prom LCT construct): significantly increased
luciferase activity ([1]; Caco-2 cells with luciferase construct lacking the DR2 sequence (pGL4Luc)): No significant change
increase of the amount of PPARγ bound to the DR2 PPRE compared to unstimulated cells [2]: 2 fold
LCT activity relative to control cells (LCT activity): significant increase; also recorded: significantly upregulated
